Reference: patent publication US20070134255A1 (priority 2003, published 2007)
Where two headings read alike, the source gives them in different places.

Legend:
PIV type 3 (PIV3) = details: cited from earlier work
hMPV [1] = assay: Ribavirin as a therapeutic (added post-infection): hMPV infected Vero cells counted by immune fluorescence; assay type: cell-based, Human Metapneumovirus; details: for inhibition at 25 µg/mL: human metapneumovirus, Vero, read-out: inhibition of viral replication
Experimental: Percentage of cells infected with hMPV. Cells were infected with 30 TCID50 of hMPV and after 0, 2, 4, 8 and 16 hours, post-infection, 0, 5, 10, 25, 50 or 100 microgram of Ribavirin was added. Three days post-infection, cells were fixed and stained with a hMPV-specific polyclonal antibody, and the number of hMPV positive and negative cells were counted in 5 fields.
(§1) Vero cells (African green monkey kidney cells) were maintained and passaged in Iscove's Modified Dulbecco's Medium (IMDM) containing L-glutamine (2 mM), penicillin (100 U/ml), streptomycin (100 μg/ml) and 10% fetal calf serum (FCS) and incubated in a humidified atmosphere at 37° C. Virus infection medium contained bovine serum albumin (BSA; 0.3%) and trypsin (2.5×10^−4%) instead of FCS. Human Metapneumovirus stocks were prepared by inoculating Vero cells with hMPV, and harvesting 7-10 days post-infection, when there were visible cytopathic effects. The virus was stored at −70° C. and titrated by end point dilution on Vero cells.
Cells were seeded in 24 well plates as described above. The next day, cells were inoculated with 10 or 100 TCID50 of hMPV in the absence of Ribavirin. Two hours post-infection, the supernatant was aspirated and the cells were washed in phosphate-buffered saline (PBS) to remove virus inoculum. Fresh medium was added and the cells were incubated at 37° C. At different time points (2, 4, 8 and 16 hours) after infection, Ribavirin was added to the cells to reach concentrations of 0, 5, 25 or 50 μg/ml.
(§2) The plates were incubated at 37° C. for 1 or 3 days. Medium was refreshed every second day and Ribavirin was maintained in the medium at all times at the appropriate concentration. After the indicated incubation period, medium was removed, the cells were washed with PBS and cells were fixed with 80% acetone. Staining for immune fluorescence analysis was performed by incubating infected cells with guinea pig anti-hMPV serum in PBS for 1 hour, followed by a FITC-labeled rabbit anti-guinea pig polyclonal antibody preparation (DAKO) in PBS for 1 hour. Background staining was finally performed with eriochrome black before analysis under an immune fluorescence microscope. Infected cells were counted in 5 fields under high power magnification (320×). Results are presented as the total number of infected cells counted in these 5 fields

hMPV [2] = assay: Ribavirin as a prophylactic: hMPV infected Vero cells counted by immune fluorescence; assay type: cell-based, Human Metapneumovirus; details: for reduction in number of infected cells: pre-incubation 2 h before infection, 100 TCID50 hMPV, day 1 post-infection, Vero cells
Experimental: as §1
One day prior to infection, the cells were seeded in 24 well plates at 30-40% confluency, and incubated overnight at 37° C. The next day, cells were pre-incubated with fresh medium containing 0, 5, 25 or 50 μg/ml of Ribavirin for 2 hours prior to virus infection. Following this pre-incubation, cells were infected with 10 or 100 TCID50 (tissue culture infectious doses) of hMPV, in the continuing presence of Ribavirin. After 2 hours, the virus inoculum was washed off and fresh medium containing Ribavirin was put onto the cells.
as §2

hMPV strain NL/01/00 = assay: Inhibition of hMPV by Ribavirin and neutralizing antibodies in Vero cells (immunofluorescence, estimated percentages of infected cells); assay type: cell-based, Human Metapneumovirus
Experimental: Passaging and seeding Vero cells (clone 118) was done in standard DMEM medium, supplemented with 10% FCS, L-glutamin and antibiotics (penicillin and streptomycin). Cells were seeded approximately 1:4 in 48 wells plates, so that cells would be ±75% confluent the next day. Infecting cells was done in IMDM medium with […], Pen/Strep and L-glutamin.
[…]. Plates were finally spun at 1500 g for 5 minutes and incubated at 37C in a humidified atmosphere for 3 days. After 3 days, from duplicate wells of each experimental condition the cells and supernatant were harvested and frozen at −70 C. Aliquots from these virus cultures were used for RNA isolation and subsequent quantification of viral genomic copy numbers by real-time RT-PCR on a TAQMAN® machine. The other duplicate wells from each experimental condition were stained for hMPV by immunofluorescence and numbers of infected cells were counted under a fluorescence microscope. Briefly, cells were washed with PBS and fixed with 80% acetone, washed again and subsequently incubated with a guinea pig anti-hMPV serum. After removal of the antiserum, cells were incubated with a FITC-labeled rabbit-anti-guinea pig polyclonal antibody preparation, washed and analyzed.
Note: Indicated results are estimated percentages of infected cells. Viral genomic copy numbers remain to be determined by taqman analyses (to be done this week)

Structure (SMILES): NC(=O)c1ncn([C@@H]2O[C@H](CO)[C@@H](O)[C@H]2O)n1 [Ribavirin]
- improvement in outcome (PIV type 3 (PIV3); Elizaga et al.: 18 of 24 PIV3 patients treated, starting three days after onset of symptoms): no improvement in outcome was observed
- viral shedding of treated and untreated patients (PIV type 3 (PIV3); Nichols et al.: 31 of 55 patients with PIV3 pneumonia treated within 48 hours of diagnosis): similar
- inhibition of viral replication (hMPV [1]; Ribavirin 25 μg/ml added after 16 hrs, read 3 days post-infection): insignificantly
- reduction of infection (hMPV [1]; Ribavirin 100 μg/ml added 8 hrs post-infection, read 3 days post-infection): 80%
- reduction of infection (hMPV [1]; Ribavirin 100 μg/ml added 16 hrs post-infection, read 3 days post-infection): 50%
- reduction of infection (hMPV [1]; Ribavirin 100 μg/ml added at 0, 2 or 4 hours post-infection, read 3 days post-infection): 95%
- percentage of MPV-positive cells (hMPV [1]; Ribavirin 25 microgram/ml or higher, added 0-16 hours after infection, 3 days post-infection): greatly reduced
- concentration of Ribavirin needed to see a significant effect (hMPV [1]; added 8 or 16 hrs post-infection): 100 µg/mL
- inhibition at 25 µg/mL (hMPV [1]; Ribavirin 25 μg/ml added 4 or 8 hrs post-infection, read 3 days post-infection): 10%
- inhibition at 25 µg/mL (hMPV [1]; Ribavirin 25 μg/ml added at 0 or 2 hrs post-infection, read 3 days post-infection): 50%
- reduction in number of infected cells (hMPV [2]; 25 μg/ml Ribavirin): approximately 50%
- decrease in the number of infected cells (hMPV [2]; 50 μg/ml Ribavirin added 2 hrs prior to or at the same time as virus infection): up to 95%
- reduction in number of infected cells (hMPV [2]; 50 μg/ml Ribavirin): approximately 95%
- effect on number of infected cells compared with day 1 (hMPV [2]; day 3 after infection, cells infected with 10 or 100 TCID50): same effect
- effect on the growth of hMPV in vero cells in vitro (hMPV strain NL/01/00; FIG. 3, 50 or 250 TCID50): profound effect
- inhibition at 25 µg/mL (hMPV strain NL/01/00; human metapneumovirus, Vero, 72 h, read-out: inhibition of viral proliferation): ~90%
